# Assay results from patent US20090137451A1, “Methods for Assessing Suitability of Cancer Patients for Treatment with Histone Deacetylase Inhibitors” (Agency for Science, Technology and Research, priority 2005, published 2009).
# Key:
# Type in all cases: cell-based, human
# [1] = test system: ER-E2F1 expressing HCT116 p53 null cells; assay: Cell death (sub-G1) by PI staining and FACS in ER-E2F1 expressing cells; details: for sub-G1 cells indicative of cell death: 48 h; for SAHA-induced apoptosis (cells in Sub-G1): in the presence of 4-OHT, SAHA 24 h
# Description: The effect of Bim-specific siRNA on HDACI-induced apoptosis upon E2F1 overexpression. (a) ER-E2F1 were transfected with nonspecific control siRNA (NC siRNA) or Bim-specific siRNA for 48 h, and then either left untreated (−) or treated with 4-OHT, SAHA or both for additional 24 h. […] Cell death was analyzed by flow cytometry following propidium iodide staining (right panel). The percentages of cells in Sub-G1 are indicated. (b) ER-E2F1 were transfected with nonspecific control siRNA (NC siRNA) or Bim-specific siRNA for 48 h, and then either left untreated (−) or treated with 4-OHT, 100 nM TSA or both for additional 48 h.
# Cells were harvested and fixed in 70% ethanol. Fixed cells were stained with propidium iodide (50 μg/ml) after treatment with RNase (100 μg/ml). The stained cells were analyzed for DNA content by fluorescence-activated cell sorting (FACS) in a FACScalibur (Becton Dickinson Instrument, San Jose, Calif.). Cell cycle fractions were quantified using the CellQuest software (Becton Dickinson).
# To definitively establish the role of Bim in HDACIs-induced apoptosis upon E2F1 activation, we used RNA interference to silence Bim expression and analyzed its biological effects. To this end, we transfected ER-E2F1 expressing cells with Bim-specific siRNA and treated with SAHA for 24 h in the presence or absence of 4-OHT. As controls, cells were also transfected with an irrelevant siRNA.
# [2] = test system: E1A-transformed IMR90 cells; assay: Apoptosis by FACS analysis in E1A-transformed IMR90 cells; details: SAHA 2.5 μM, TSA 300 nM; 48 h
# Description: FIG. 5. Rb inactivation enhances Bim expression and sensitizes HDACIs-induced apoptosis. (a) U2OS cells were infected with Ad-E1A or Ad-LacZ for 24 h and treated with SAHA (1 μM) for additional 48 h. Cell death was determined by FACS analysis (right panel), and the levels of Bim and p73 were assessed by immunoblotting using antibodies against the indicated proteins (left panel). (b) Normal IMR90 and transformed IMR90-E1A cells were treated with SAHA at indicated concentrations and cell proliferation was evaluated for indicated times. (c) Expression of E1A results in upregulation of Bim and apoptosis potentiation in response to SAHA and TSA. […] Cell death was determined by FACS analysis (left panel), and the levels of Bim and p73 were assessed by immunoblotting using antibodies against indicated proteins (right panel). […] The expressions of Bim and β-actin were assessed by immunoblotting using antibodies against the indicated proteins. Apoptosis was evaluated by FACS analysis. […] The expressions of E2F1, Bim and PARP were assessed by immunoblotting using antibodies against the indicated proteins. […] Apoptosis was evaluated by FACS analysis.
# Cells were harvested and fixed in 70% ethanol. […] The stained cells were analyzed for DNA content by fluorescence-activated cell sorting (FACS) in a FACScalibur (Becton Dickinson Instrument, San Jose, Calif.). […]
# normal IMR90 cells = assay: Cell proliferation, dose-response, normal IMR90 cells; details: dose-response study, FIG. 5b
# Description: (§1) FIG. 5. Rb inactivation enhances Bim expression and sensitizes HDACIs-induced apoptosis. (a) U2OS cells were infected with Ad-E1A or Ad-LacZ for 24 h and treated with SAHA (1 μM) for additional 48 h. Cell death was determined by FACS analysis (right panel), and the levels of Bim and p73 were assessed by immunoblotting using antibodies against the indicated proteins (left panel). (b) Normal IMR90 and transformed IMR90-E1A cells were treated with SAHA at indicated concentrations and cell proliferation was evaluated for indicated times. (c) Expression of E1A results in upregulation of Bim and apoptosis potentiation in response to SAHA and TSA. IMR90 and IMR90-E1A cells were treated with SAHA (2.5 μM) and TSA (300 nM) for 48 h. Cell death was determined by FACS analysis (left panel), and the levels of Bim and p73 were assessed by immunoblotting using antibodies against indicated proteins (right panel). (d) IMR90-E1A cells transfected with Bim siRNA or control siRNA (NC siRNA) were treated with TSA (800 nM) for 24 h. The expressions of Bim and β-actin were assessed by immunoblotting using antibodies against the indicated proteins. Apoptosis was evaluated by FACS analysis. […] The expressions of E2F1, Bim and PARP were assessed by immunoblotting using antibodies against the indicated proteins. […] Apoptosis was evaluated by FACS analysis. […]
# [3] = test system: transformed IMR90-E1A cells; assay: Cell proliferation, dose-response, transformed IMR90-E1A cells; details: dose-response study, FIG. 5b
# Description: as §1
# ER-E2F1 expressing cells = assay: Colony formation assay; details: 100 nM TSA or 1 μM SAHA for 24 h, with 4-OHT; colonies stained with crystal violet
# Description: FIG. 1. HDACIs SAHA and TSA promote E2F1-mediated cell death (a) p53 null HCT116-ER-E2F1 expressing cells or control ER expressing cells were treated with or without 4-OHT. Cyclin E and p73 expression were evaluated by immunoblot analysis. (b) ER-E2F1 expressing or control cells were treated with 1 μM SAHA (left panel) or 100 nM TSA (right panel), in the presence or absence of 4-OHT. After 48 h, cells were harvested and cell death was assessed by PI staining using FACS. Mean results of three independent experiments were shown with standard deviations. (c) Colony formation assay. […] (d) Saos-2 and HCT116 cells infected with adenovirus containing E2F1 or LacZ as indicated were treated with 100 nM TSA for 24 h, and cell death was analyzed by FACS.
# 1000 cells were plated per well of a 6-well plate for 24-48 h and then followed by 100 nM TSA or 1 μM SAHA treatment in the presence or absence of 4-OHT. […] Colonies were stained with crystal violet and counted after 12 days.
# To investigate whether E2F1 activation induces sensitization of cells to HDACIs-induced cell death, we analyzed the cell cycle profiles by FACS (fluorescence-activated cell sorter) in ER-E2F1 expressing HCT116 p53 null cells (ER-E2F1) and the control cells expressing ER-binding domain only (ER) following treatment with the HDACIs SAHA or TSA in the presence or absence of 4-OHT. […]
# [4] = agent alone, 1 μM SAHA, PI staining FACS
# [5] = both 4-OHT and HDACI (1 μM SAHA or 100 nM TSA)
compound,measurement,setting,value
4-hydroxytamoxifen [4-OHT],sub-G1 cells indicative of cell death,[1]; [4],approximately 13%
"O=C(CCCCCCC(=O)Nc1ccccc1)NO [SAHA, suberoylanilide hydroxamic acid]",apoptosis,[2],~60%
same,proliferation,normal IMR90 cells,substantially inhibited proliferation
same,sub-G1 cells indicative of cell death,[1]; [4],~23%
same,sub-G1 cells indicative of cell death,[1]; [5],75%
same,SAHA-induced apoptosis (cells in Sub-G1),[1]; cells treated with Bim siRNA,18%
same,SAHA-induced apoptosis (cells in Sub-G1),[1]; control siRNA treated cells,49%
same,proliferation,[3],substantially inhibited proliferation
same,effect of E2F1 activation by 4-OHT on HDACI-induced growth inhibition,ER-E2F1 expressing cells,greatly promoted
"CC(/C=C/C(=O)NO)=C\[C@@H](C)C(=O)c1ccc(N(C)C)cc1 [TSA, Trichostatin A]",apoptosis,[2],~60%
same,sub-G1 cells indicative of cell death,[1]; [5],Identical results
same,effect of E2F1 activation by 4-OHT on HDACI-induced growth inhibition,ER-E2F1 expressing cells,greatly promoted
